From DBAASP
Converted amounts (≈) assume the structure as drawn. “And” between values parts separate entries of the source, which are not always exact repeats. Equal values may be shown once. One block for each compound: values may come before it.

Columns and labels:
Assay in all cases: ≥ marks a high value that may be exact or a test limit, other limits are often not marked, values filed in µg/mL are converted to µM
[1] = tested on: Escherichia coli J2210
[2] = tested on: Escherichia coli UB1005
[3] = tested on: Pseudomonas aeruginosa PAO1
[4] = tested on: Escherichia coli JW0013
[5] = tested on: Escherichia coli O157:H7
[6] = tested on: Salmonella enterica subsp. enterica serovar Enteritidis MH91989
[7] = tested on: Escherichia coli MC1061
[8] = tested on: Escherichia coli JJ2487
[9] = tested on: Staphylococcus aureus ATCC 25923
[10] = tested on: Salmonella typhimurium SL1344
[11] = tested on: Staphylococcus aureus ATCC 6538
[12] = tested on: Bacillus subtilis ATCC 6633
[13] = tested on: Staphylococcus aureus 08A875
[14] = tested on: Escherichia coli ATCC 25922
[15] = tested on: Candida albicans 08A802
[16] = tested on: Mycobacterium tuberculosis CAS3
[17] = tested on: Enterococcus faecalis
[18] = tested on: Escherichia coli
[19] = tested on: Mycobacterium tuberculosis H37Rv
[20] = tested on: Candida albicans ATCC 2002
[21] = tested on: Acinetobacter baumannii ATCC 19606
[22] = tested on: Pseudomonas aeruginosa
[23] = tested on: Pseudomonas aeruginosa ATCC 27853
[24] = tested on: Escherichia coli ATCC 35218
[25] = tested on: Candida albicans 08022710
[26] = tested on: Mycobacterium tuberculosis WXY
[27] = tested on: Mycobacterium tuberculosis FYX
[28] = tested on: Staphylococcus epidermidis
[29] = tested on: Candida albicans ATCC 10231
[30] = tested on: Acinetobacter baumannii 1
[31] = tested on: Staphylococcus aureus ATCC 49525
[32] = tested on: Porphyromonas gingivalis W50
[33] = tested on: Staphylococcus epidermidis ATCC 12228
[34] = tested on: Lacticaseibacillus rhamnosus 1.0936
[35] = tested on: Staphylococcus aureus ATCC 29213
[36] = tested on: Lacticaseibacillus rhamnosus 1.0911
[37] = tested on: Salmonella enterica subsp. enterica serovar Pullorum C79-13
[38] = tested on: Streptococcus agalactiae BNCC 185941
[39] = tested on: Escherichia coli K88
[40] = tested on: Salmonella enterica subsp. enterica serovar Choleraesuis CVCC 503
[41] = tested on: Escherichia coli O157:H7 CICC 21530
[42] = tested on: Lacticaseibacillus rhamnosus 8014
[43] = tested on: Staphylococcus aureus ATCC 43300
[44] = tested on: Lacticaseibacillus rhamnosus 1.9021
[45] = tested on: Salmonella enterica subsp. enterica serovar Typhimurium ATCC 14028

MIC [1]: 0.161 µM (≈ 0.39 µg/mL)
MIC [2]: 1.03 µM (≈ 2.5 µg/mL)
MIC [3]: 13.2 µM (≈ 32 µg/mL)
MIC [4]: 0.248 µM (≈ 0.6 µg/mL)
MIC [5]: 0.991 µM (≈ 2.4 µg/mL)
MIC [6]: 0.248 µM (≈ 0.6 µg/mL)
MIC [7]: 0.124 µM (≈ 0.3 µg/mL)
MIC [8]: 0.248 µM (≈ 0.6 µg/mL)
MIC [9]: 9.34 µM (≈ 22.6 µg/mL)
MIC [10]: 0.248 µM (≈ 0.6 µg/mL)
Structure (SMILES): CC[C@H](C)[C@H](NC(=O)[C@H](CCCN=C(N)N)NC(=O)[C@H](CCCN=C(N)N)NC(=O)[C@@H]1CCCN1C(=O)[C@@H]1CCCN1C(=O)[C@H](CCCN=C(N)N)NC(=O)[C@@H]1CCCN1C(=O)[C@H](CCCN=C(N)N)NC(=O)[C@@H]1CCCN1C(=O)[C@H](CC(C)C)NC(=O)[C@H](Cc1ccc(O)cc1)NC(=O)[C@@H]1CCCN1C(=O)[C@H](CCCCN)NC(=O)[C@H](CCCCN)NC(=O)[C@H](CC(=O)O)NC(=O)[C@@H](N)C(C)C)C(=O)N[C@@H](Cc1ccc(O)cc1)C(=O)N[C@@H](CC(N)=O)C(=O)N[C@@H](CCCN=C(N)N)C(N)=O [VDKKPYLPRPRPPRRIYNR]

MIC [11]: > 96.5 µM
MIC [12]: ≥ 72.4 µM
MIC [13]: ≥ 72.4 µM
MIC [14]: > 96.5 µM
MIC [15]: ≥ 72.4 µM
MIC [16]: 9.05 µM (≈ 18.8 µg/mL)
MIC [17]: ≥ 72.4 µM
MIC [18]: > 96.5 µM and 72.4 µM
MIC [19]: 9.05 µM (≈ 18.8 µg/mL)
MIC [20]: ≥ 96.5 µM
MIC [21]: 72.4 µM (≈ 150 µg/mL)
MIC [22]: > 96.5 µM
MIC [23]: > 96.5 µM
MIC [24]: ≥ 96.5 µM
MIC [25]: ≥ 96.5 µM
MIC [26]: 4.53 µM (≈ 9.38 µg/mL)
MIC [27]: 9.05 µM (≈ 18.8 µg/mL)
MIC [28]: ≥ 96.5 µM
MIC [29]: > 96.5 µM
MIC [9]: > 96.5 µM
MIC [30]: ≥ 96.5 µM
Structure (SMILES): CC(C)C[C@H](NC(=O)[C@H](CC(C)C)NC(=O)[C@H](CCCCN)NC(=O)[C@H](CCCCN)NC(=O)[C@@H](NC(=O)[C@H](C)N)C(C)C)C(=O)N[C@@H](CCCN=C(N)N)C(=O)N[C@@H](Cc1c[nH]c2ccccc12)C(=O)N[C@@H](Cc1c[nH]c2ccccc12)C(=O)N[C@@H](CO)C(=O)N[C@@H](CCCN=C(N)N)C(=O)N[C@@H](Cc1c[nH]c2ccccc12)C(=O)N[C@@H](Cc1c[nH]c2ccccc12)C(=O)N[C@@H](CCCCN)C(=O)N[C@@H](CCCCN)C(=O)O [AVKKLLRWWSRWWKK]

MIC [3]: 5.61 µM and 7.3 µM
MIC [31]: ≥ 58.5 µM
MIC [32]: ≥ 70.2 µM
Structure (SMILES): CC[C@H](C)[C@H](NC(=O)[C@H](CCCCN)NC(=O)CN)C(=O)N[C@H](C(=O)N[C@@H](CCCCN)C(=O)N[C@@H](CC(C)C)C(=O)N[C@@H](CCCCN)C(=O)N[C@@H](C)C(=O)N[C@@H](CO)C(=O)N[C@@H](CC(C)C)C(=O)N[C@@H](CCCCN)C(=O)N[C@@H](CC(C)C)C(=O)N[C@@H](CC(C)C)C(N)=O)[C@@H](C)CC [GKIIKLKASLKLL]

MIC [33]: > 128 µM
MIC [34]: ≥ 128 µM
MIC [35]: > 128 µM
MIC [36]: ≥ 128 µM
MIC [37]: 8 µM (≈ 10.3 µg/mL)
MIC [38]: ≥ 128 µM
MIC [39]: 4 µM (≈ 5.13 µg/mL)
MIC [3]: 16 µM (≈ 20.5 µg/mL)
MIC [41]: ≥ 128 µM
MIC [42]: ≥ 128 µM
MIC [23]: 32 µM (≈ 41 µg/mL)
MIC [43]: > 128 µM
MIC [44]: ≥ 128 µM
MIC [45]: 128 µM (≈ 164 µg/mL)
Structure (SMILES): CC(C)C[C@H](NC(=O)CNC(=O)[C@H](CCCCN)NC(=O)[C@H](Cc1c[nH]c2ccccc12)NC(=O)[C@H](CCCCN)NC(=O)CNC(=O)[C@H](CC(C)C)NC(=O)[C@H](CC(C)C)NC(=O)[C@@H](N)CCCCN)C(=O)N[C@@H](CC(C)C)C(=O)N[C@@H](CCCCN)C(N)=O [KLLGKWKGLLK]
MIC [40]: ≥ 128 µM
